Test results: ChEMBL document CHEMBL3098109, “The identification of AF38469: an orally bioavailable inhibitor of the VPS10P family sorting receptor Sortilin” (Bioorg Med Chem Lett, 2014)
Converted amounts (≈) assume the structure as drawn.

What was measured:
Sortilin (Homo sapiens) = Sortilin (Homo sapiens) (UniProt Q99523); assay: Displacement of [3H]-neurotensin from sortilin (unknown origin) at 50 uM incubated 30 mins prior to [3H]-neurotensin addition measured after 6 hrs by scintillation proximity assay
[1] = Oral bioavailability in rat at 2 mg/kg; type: ADME, organism-based; conditions: in vivo
[2] = Volume of distribution at steady state in rat at 1 mg/kg, iv; type: ADME, organism-based; design: dose 1 mg/kg, route intravenous; conditions: in vivo, read-out: Vdss
[3] = Half life in rat at 1 mg/kg, iv; type: ADME, organism-based; design: dose 1 mg/kg, route intravenous; conditions: in vivo
[4] = Blood clearance in rat at 1 mg/kg, iv; type: ADME, organism-based; design: dose 1 mg/kg, route intravenous; conditions: whole blood
[5] = Cmax in rat at 2 mg/kg, po; type: ADME, organism-based; design: dose 2 mg/kg, route oral; conditions: in vivo
[6] = Intrinsic clearance in rat; type: ADME, organism-based; conditions: in vivo
[7] = Free plasma concentration in rat; type: ADME, cell-free
[8] = Solubility of the compound; type: physicochemical
Sortilin = molecular target: T1, Sortilin (Homo sapiens, UniProt Q99523)
T1 sequence (Q99523 whole entry): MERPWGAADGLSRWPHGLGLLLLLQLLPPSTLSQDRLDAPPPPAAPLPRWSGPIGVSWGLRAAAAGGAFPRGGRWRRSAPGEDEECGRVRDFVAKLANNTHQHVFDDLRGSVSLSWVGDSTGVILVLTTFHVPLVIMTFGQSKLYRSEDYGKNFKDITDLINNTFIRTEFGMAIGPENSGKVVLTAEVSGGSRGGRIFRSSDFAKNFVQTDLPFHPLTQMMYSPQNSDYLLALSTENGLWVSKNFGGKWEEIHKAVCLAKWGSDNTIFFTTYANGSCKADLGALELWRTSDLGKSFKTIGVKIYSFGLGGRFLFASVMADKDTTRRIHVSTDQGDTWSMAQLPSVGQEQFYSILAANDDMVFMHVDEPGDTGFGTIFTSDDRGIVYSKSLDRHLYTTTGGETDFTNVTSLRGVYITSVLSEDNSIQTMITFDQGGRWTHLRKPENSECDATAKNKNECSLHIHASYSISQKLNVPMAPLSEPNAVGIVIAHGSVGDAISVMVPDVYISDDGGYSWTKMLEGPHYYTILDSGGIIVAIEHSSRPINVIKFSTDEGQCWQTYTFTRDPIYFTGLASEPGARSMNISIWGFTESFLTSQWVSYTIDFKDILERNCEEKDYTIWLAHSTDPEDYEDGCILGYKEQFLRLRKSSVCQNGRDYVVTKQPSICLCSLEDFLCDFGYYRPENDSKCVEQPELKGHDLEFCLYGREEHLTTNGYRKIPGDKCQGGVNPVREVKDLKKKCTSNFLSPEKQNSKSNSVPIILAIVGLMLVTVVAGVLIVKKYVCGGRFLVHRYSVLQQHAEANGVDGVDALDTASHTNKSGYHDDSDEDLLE

| inhibition (Sortilin (Homo sapiens)) [%] | Structure (SMILES) | other results |
| --- | --- | --- |
| 15 | Cc1cccc(NC(=O)c2ccccc2C(=O)O)n1 | – |
| 5 | Cc1cccc(NC(=O)c2cccc(C)c2C(=O)O)n1 | – |
| 57 | Cc1ccc(C(=O)O)c(C(=O)Nc2cccc(C)n2)c1 | – |
| 43 | Cc1cccc(NC(=O)c2c(C)cccc2C(=O)O)n1 | – |
| 69 | Cc1cccc(NC(=O)c2cc(Cl)ccc2C(=O)O)n1 | – |

Continued, molecule first:

| Structure (SMILES) | inhibition (Sortilin (Homo sapiens)) [%] | other results |
| --- | --- | --- |
| Cc1cccc(NC(=O)c2ccc(-c3ccccc3)cc2C(=O)O)n1 | 2 | – |
| Cc1ccc(NC(=O)c2ccc(Br)cc2C(=O)O)cn1 | 70 | – |
| Cc1cccc(NC(=O)c2ccc(C(F)(F)F)cc2C(=O)O)n1 | – | bioavailability [1]: 35%; Vd [2]: 0.02 L/kg; half-life [3]: 1.2 h; clearance [4]: 0.5 mL/min/kg; Cmax [5]: 12800 ng/mL; CLint scaled [6]: 6.67 mL/min/kg; fraction unbound [7]: 0.02; solubility [8]: 134 µg/mL (≈ 413 µM) |
| CC(C)NC(=O)c1ccc(Br)cc1C(=O)O | 35 | – |
| Cc1cc(=O)oc2c(CN[C@@H](CC(C)C)C(=O)O)c(O)ccc12 | – | IC50 (Sortilin): 4 µM |
| CCC(C)NC(=O)c1ccc(Br)cc1C(=O)O (stereo not given) | 30 | – |
| O=C(O)c1cc(Br)ccc1C(=O)Nc1ccccc1 | 69 | – |
| Cc1cccnc1NC(=O)c1ccc(Br)cc1C(=O)O | 64 | – |
